Compound: C/C(=N\NC(=S)N1CCC1)/C2=CC=CC=N2 + Cc1cc(Nc2cc(N3CCN(C)CC3)nc(Sc3ccc(NC(=O)C4CC4)cc3)n2)n[nH]1 [Tozasertib] (partner 0.1 µM)
Assay: relative viability (nuclei count vs DMSO), 5 days (fraction); higher = more cells survive
Outline: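 Lung cancer cell lines in 1536-well plates got either a single drug or a fixed anchor-drug dose together with five library-drug doses (not always all listed) in √10 steps, by pin tool, on the day after seeding. Nuclei were counted after 5 days, and relative viability is the treated-to-vehicle ratio of nuclei counts. Values are medians of duplicate plates.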

Cell Line | relative viability (first compound 0.05 µM) | relative viability (first compound 0.1581 µM) | relative viability (first compound 0.5 µM) | relative viability (first compound 1.581 µM) | relative viability (first compound 5 µM)
201T | 0.424 | 0.445 | 0.368 | 0.292 | 0.296
A-427 | 0.1 | 0.0846 | 0.12 | 0.077 | 0.102
ABC-1 | 0.193 | 0.146 | 0.152 | 0.168 | 0.163
BEN | 0.334 | 0.354 | 0.336 | 0.352 | 0.397
CAL-12T | 0.128 | 0.12 | 0.131 | 0.107 | 0.113
COR-L23 | 0.101 | 0.0974 | 0.0768 | 0.0695 | 0.101
COR-L 105 | 0.205 | 0.245 | 0.229 | 0.231 | 0.22
ChaGo-K-1 | 0.141 | 0.154 | 0.17 | 0.151 | 0.168
EKVX | 0.131 | 0.108 | 0.101 | 0.103 | 0.12
EMC-BAC-2 | 0.176 | 0.187 | 0.147 | 0.151 | 0.167
EPLC-272H | 0.0738 | 0.0936 | 0.118 | 0.0848 | 0.114
H3255 | 0.331 | 0.167 | 0.288 | 0.193 | 0.232
HARA | 0.0547 | 0.0677 | 0.0627 | 0.0539 | 0.0645
HCC-15 | 0.0765 | 0.0513 | 0.112 | 0.0654 | 0.0641
HCC-44 | 0.359 | 0.309 | 0.257 | 0.246 | 0.231
HCC-78 | 0.332 | 0.205 | 0.248 | 0.206 | 0.202
HCC-366 | 0.0183 | 0.0481 | 0.0208 | 0.0215 | 0.0265
HCC-827 | 0.383 | 0.36 | 0.225 | 0.185 | 0.148
HOP-62 | 0.129 | 0.109 | 0.0803 | 0.104 | 0.0835
LC-2-ad | 0.253 | 0.244 | 0.23 | 0.171 | 0.207
LCLC-97TM1 | 0.193 | 0.218 | 0.105 | 0.128 | 0.165
LCLC-103H | 0.244 | 0.175 | 0.202 | 0.133 | 0.165
LK-2 | 0.166 | 0.139 | 0.157 | 0.147 | 0.149
LOU-NH91 | 0.38 | 0.411 | 0.366 | 0.313 | 0.367

Cell Line | relative viability (first compound 0.05 µM) | relative viability (first compound 0.1581 µM) | relative viability (first compound 0.5 µM) | relative viability (first compound 1.581 µM) | relative viability (first compound 5 µM)
LU99A | 0.155 | 0.164 | 0.164 | 0.152 | 0.165
LXF-289 | 0.126 | 0.108 | 0.114 | 0.124 | 0.0738
NCI-H23 | 0.122 | 0.172 | 0.119 | 0.112 | 0.133
NCI-H322M | 0.271 | 0.27 | 0.241 | 0.313 | 0.364
NCI-H358 | 0.0651 | 0.0617 | 0.0695 | 0.0742 | 0.0612
NCI-H441 | 0.294 | 0.229 | 0.159 | 0.168 | 0.195
NCI-H460 | 0.0816 | 0.0449 | 0.0431 | 0.0348 | 0.0095
NCI-H520 | 0.191 | 0.241 | 0.197 | 0.175 | 0.269
NCI-H522 | – | 0.292 | 0.296 | – | 0.407
NCI-H596 | 0.445 | 0.34 | 0.191 | 0.195 | 0.2
NCI-H647 | 0.0603 | 0.0452 | 0.0549 | 0.0672 | 0.0612
NCI-H650 | 0.184 | 0.189 | 0.185 | 0.158 | 0.16
NCI-H661 | 0.239 | 0.261 | 0.23 | 0.235 | 0.248
NCI-H727 | 0.28 | 0.311 | 0.257 | 0.159 | 0.261
NCI-H838 | 0.148 | 0.143 | 0.137 | 0.133 | 0.129
NCI-H1355 | 0.186 | 0.169 | 0.17 | 0.172 | 0.163
NCI-H1395 | 0.389 | 0.347 | 0.359 | 0.34 | 0.328
NCI-H1437 | 0.144 | 0.138 | 0.157 | 0.133 | 0.102
NCI-H1648 | 0.275 | 0.216 | 0.229 | 0.309 | 0.233
NCI-H1650 | 0.121 | 0.187 | 0.126 | 0.16 | 0.194
NCI-H1651 | 0.136 | 0.114 | 0.108 | 0.0885 | 0.0771
NCI-H1666 | 0.35 | 0.33 | 0.301 | 0.3 | 0.305
NCI-H1734 | 0.135 | 0.15 | 0.152 | 0.116 | 0.121
NCI-H1755 | 0.465 | 0.305 | 0.213 | 0.278 | 0.258

Cell Line | relative viability (first compound 0.05 µM) | relative viability (first compound 0.1581 µM) | relative viability (first compound 0.5 µM) | relative viability (first compound 1.581 µM) | relative viability (first compound 5 µM)
NCI-H1793 | 0.164 | 0.209 | 0.152 | 0.136 | 0.126
NCI-H1915 | 0.178 | 0.137 | 0.129 | 0.131 | 0.139
NCI-H1944 | 0.248 | 0.181 | 0.127 | 0.0988 | 0.107
NCI-H1975 | 0.105 | 0.0772 | 0.0873 | 0.101 | 0.0836
NCI-H1993 | 0.479 | 0.466 | 0.449 | 0.513 | 0.51
NCI-H2009 | 0.103 | 0.148 | 0.143 | 0.183 | 0.149
NCI-H2023 | 0.063 | 0.0672 | 0.0602 | 0.0657 | 0.0603
NCI-H2085 | 0.372 | 0.366 | 0.388 | 0.315 | 0.315
NCI-H2087 | 0.0992 | 0.0962 | 0.114 | 0.0938 | 0.0874
NCI-H2126 | 0.174 | 0.167 | 0.193 | 0.162 | 0.19
NCI-H2170 | 0.659 | 0.334 | 0.197 | 0.113 | 0.141
NCI-H2228 | 0.0977 | 0.114 | 0.126 | – | 0.116
NCI-H2342 | 0.229 | 0.264 | 0.263 | 0.219 | 0.247
NCI-H2347 | 0.173 | 0.254 | 0.177 | 0.244 | 0.258
NCI-H2405 | 0.24 | 0.286 | 0.266 | 0.239 | 0.253
NCI-H3122 | 0.0931 | 0.0762 | 0.0946 | 0.109 | 0.0776
PC-3 [JPC-3] | 0.612 | 0.474 | 0.3 | 0.281 | 0.241
PC-14 | 0.0506 | 0.0536 | 0.0474 | 0.05 | 0.0386
RERF-LC-KJ | 0.203 | 0.208 | 0.246 | 0.217 | 0.242
SK-LU-1 | 0.141 | 0.124 | 0.174 | 0.0952 | 0.136
SK-MES-1 | 0.22 | 0.188 | 0.183 | 0.158 | 0.147
SW 1573 | 0.0614 | 0.0887 | 0.0999 | 0.0752 | 0.0626
UMC-11 | 0.196 | 0.177 | 0.196 | 0.192 | 0.185
